Data as given in patent US12532886B2, “Method of killing microbes using C3-C5 n-alkyl-gamma-butyrolactams and antimicrobial compositions containing same” (Virox Technologies Inc., priority 2018, dated 2026).

System: M. smegmatis
Assay: ASTM E2197-02 test method, without soil load, against mycobacteria
Type: cell-based
Description: Solutions A, B and AA were prepared to test the antimicrobial activity of N-alkyl-gamma-butyrolactam, specifically N-butyl-gamma-butyrolactam and N-octyl-gamma-butyrolactam. These solutions were tested using the ASTM E2197-02 test method (5-minute contact time or 75 second contact time) without soil load, against hard-to-kill mycobacteria (M. smegmatis).
Solution B was also tested using ASTM E2197-02 test method (75 second contact time), without soil load, against mycobacteria (M. smegmatis) and achieved a log10 reduction of 0.11 (shown in the last row of Table 1.0).
Additional solutions were prepared to assess the antimicrobial activity of N-alkyl-gamma-butyrolactam, specifically N-butyl-gamma-butyrolactam, when combined with other antimicrobial agents in aqueous solution. These solutions are summarized in Tables 2.0, 2.1, and 2.2 below and tested using ASTM E2197-02 test method (75 second contact time), without soil load, against mycobacteria (M. smegmatis).

Structure (SMILES)	Antimicrobial activity against M. smegmatis, 5 minutes contact time
CCCCN1CCCC1=O [N-butyl-gamma-butyrolactam]	possesses antimicrobial activity
CCCCCCCCN1CCCC1=O [N-octyl-gamma-butyrolactam]	no antimicrobial activity
